Experiment [1] deals with HIV-1 protease (Human immunodeficiency virus type 1 group M subtype B, UniProt P04585). The experiment can be described thus: HIV protease inhibition assay (quenched fluorogenic substrate, fluorescence energy transfer). The conditions noted are these: crude HIV-1 protease from E. coli, pH 4.7, 2 hours at 37° C.
Experimental: HIV Protease Inhibition Assay
HIV protease inhibitory activity was assessed using an adaptation of the method of Matayoshi. et al. [Matayoshi E. D. et al (1990).
Crude HIV-1 protease was prepared from E. coli pPTΔN. Cultures were grown at 30° C. in M9 medium supplemented with 0.2% casamino acids, 100 μg/ml ampicillin and 25 μg/ml thiamine until OD600=0.5-0.6, and the temperature was raised to 42° C. to induce expression of the protease. After 1.5 hours, the cells were harvested and the pellets stored at −70° C. until required.
The protease was prepared by lysis of the cells in a French pressure cell followed by precipitation of the enzyme with ammonium sulfate at 30% saturation.
The assay buffer comprised 0.1M sodium acetate pH 4.7, 8 mM EDTA, 0.2 M NaCl.
Tubes were incubated for 2 hours at 37° C. and the reaction was terminated by the addition of 500 μl of a 2:1 mixture of DMSO: 50 mM Tricine pH 8.5. Fluorescence was measured in a fluorescence spectrophotometer, excitation λ=340 nm, emission λ=492 nm.
Experiment [2] relates to HIV-HXB2 in MT4 cells. Kind of experiment: Antiviral assay: protection of HIV-infected MT4 cells from cell death (MTT). It is filed as cell-based. The conditions noted are these: MT4 cells infected with HIV-HXB2, 5 days, concentration preserving cell viability by 50%. The procedure: Methods 20: 309-321]. The method is based on the ability of compounds to protect HIV-infected T lymphoblastoid cells (MT4 cells) from cell-death mediated by the infection. The endpoint of the assay was calculated as the concentration of compound at which the cell viability of the culture was preserved by 50% (‘50% inhibitory concentration’, IC50). The cell viability of a culture was determined by the uptake of soluble, yellow 3-[4,5-dimethylthiazol-2-yl]-2,5-diphenyltetrazolium bromide (MTT) and its reduction to a purple insoluble formazan salt. After solubilization, spectrophotometric methods were employed to measure the amount of formazan product. MT4 cells were prepared to be in logarithmic-phase growth and a total of 2×10^6 cells infected with either the wild type or site directed mutant clones of HIV-HXB2 at a multiplicity of approximately 0.0001 infectious units of virus per cell in a total volume of between 200-500 μl. The cells were incubated with virus for one hour at 37° C. then washed in 0.01 M phosphate buffered saline, pH 7.2, and resuspensed in culture medium for incubation in culture with serial dilutions of test compound. The culture medium used was RPMI 1640 without phenol red, supplemented with penicillin, streptomycin, L-glutamine and 10% fetal calf serum (GM 10).
Test compounds were prepared as 2 mM solutions in dimethyl sulphoxide (DMSO). Four replicate, serial 2-fold dilutions in GM10 were then prepared and 50 microlitre amounts placed in 96-well plates over a final concentration range of 625-1.22 nm. Fifty microlitres GM10 and 3.75×10^4 infected cells were then added to each well. Control cultures containing no cells (blank), uninfected cells (100% viability; 4 replicates) and infected cells without compound (total virus-mediated cell death; 4 replicates) were also prepared. The cultures were then incubated at 37° C. in a humidified atmosphere of 5% CO2 in air for 5 days.
A fresh solution of 5 mg/mL MTT was prepared in 0.01 M phosphate buffered saline, pH 7.2 and 20 μL added to each culture. The cultures were further incubated as before for 2 hours. They were then mixed by pipetting up and down, and 170 microlitres of Triton X-100 in acidified isopropanol (10% v/v Triton X-100 in 1:250 mixture of concentrated HCl in isopropanol) were added and the cultures were mixed again by pipetting up and down. When the formazan deposit was fully solubilised by further mixing, the absorbance (OD) of the cultures was measured at 540 nm and 690 nm wavelength (690 nm readings were used as blanks for artefacts between wells). The percent protection for each treated culture was then calculated from the equation: [formula]
The IC50 was then obtained from graph plots of percentage protection versus log10 drug concentration.

Where [3] appears, read: Human immunodeficiency virus 1, HXB2, MT4, 120 h.

Read-outs that look alike come from different tables or passages of the source.

By IC50 is commonly meant the concentration needed to halve the response being measured. On to `COC1CCC(C[C@@H](O)[C@H](Cc2ccccc2)NC(=O)[C@@H](CS(=O)(=O)c2cccc3ccccc23)NS(C)(=O)=O)C(C(=O)NC(C)(C)C)C1` (stereo partly drawn) [Example 29, 2-{2-Hydroxy-3-[2-methanesulfonylamino-3-(naphthalene-1-sulfonyl)-propionylamino]-4-phenyl-butyl}-5-methoxy-cyclohexanecarboxylic acid tert-butylamide], for which the values for the IC50 in experiment [1] (Enzyme IC50 (nM)) and in experiment [2] (setting [3]) were 0.41 nM and 73 nM, respectively.

`CC(C)(C)NC(=O)C1CCCCC1C[C@@H](O)[C@H](Cc1ccccc1)NC(=O)[C@@H](C[S+]([O-])c1cccc2ccccc12)NS(C)(=O)=O` (stereo partly drawn) [Example 21, 2-{2-Hydroxy-3-[2-methanesulfonylamino-3-(naphthalene-1-sulfinyl)-propionylamino]-4-phenyl-butyl}-cyclohexanecarboxylic acid tert-butylamide]: the IC50 in experiment [1] (Enzyme IC50 (nM)) worked out at 0.31 nM.

For the compound `COC1CCC(C[C@@H](O)[C@H](Cc2ccccc2)NC(=O)[C@@H](CSc2ccc3ccccc3c2)NS(C)(=O)=O)C(C(=O)NC(C)(C)C)C1` (stereo partly drawn) [Example 10, 2-{2-Hydroxy-3-[2-methanesulfonylamino-3-(naphthalen-2-ylsulfanyl)-propionylamino]-4-phenyl-butyl}-5-methoxy-cyclohexanecarboxylic acid tert-butylamide], the 50% inhibitory concentration (IC50) came to 0.3 nM in experiment [1] (Enzyme IC50 (nM)) and 28 nM in experiment [2].

As for `CC1CC(C[C@@H](O)[C@H](Cc2ccccc2)NC(=O)[C@@H](CS(=O)(=O)c2ccc3ccccc3c2)NS(C)(=O)=O)C(C(=O)NC(C)(C)C)C1` (stereo partly drawn) [Example 23, 2-{2-Hydroxy-3-[2-methanesulfonylamino-3-(naphthalene-2-sulfonyl)-propionylamino]-4-phenyl-butyl}-4-methyl-cyclopentanecarboxylic acid tert-butylamide], the IC50 in experiment [1] (Enzyme IC50 (nM)) is 0.55 nM; in experiment [2] (setting [3]), 13 nM.

Take `COC1CCC(C[C@@H](O)[C@H](Cc2ccccc2)NC(=O)[C@@H](C[S+]([O-])c2ccc3ccccc3c2)NS(C)(=O)=O)C(C(=O)NC(C)(C)C)C1` (stereo partly drawn) [Example 20, 2-{2-Hydroxy-3-[2-methanesulfonylamino-3-(naphthalene-2-sulfinyl)-propionylamino]-4-phenyl-butyl}-5-methoxy-cyclohexanecarboxylic acid tert-butylamide]: the values for the IC50 in experiment [1] (read-out: Enzyme IC50) and in experiment [2] were 0.2 nM and 21 nM, respectively.

For the compound `CC(C)(C)NC(=O)[C@@H]1CCCCC1C[C@@H](O)[C@H](Cc1ccccc1)NC(=O)[C@@H](CSc1cccc2ccccc12)NS(C)(=O)=O` (stereo in doubt) [Example 13, 2-{2-Hydroxy-3-[2-methanesulfonylamino-3-(naphthalen-1-ylsulfanyl)-propionylamino]-4-phenyl-butyl}-cyclohexanecarboxylic acid tert-butylamide], in experiment [1] (Enzyme IC50 (nM)), the IC50 was determined as 0.44 nM.

With `COC1CCC(C[C@@H](O)[C@H](Cc2ccccc2)NC(=O)[C@@H](CS(=O)(=O)c2ccc3ccccc3c2)NS(C)(=O)=O)C(C(=O)NC(C)(C)C)C1` (stereo partly drawn) [Example 30, 2-{2-Hydroxy-3-[2-methanesulfonylamino-3-(naphthalene-2-sulfonyl)-propionylamino]-4-phenyl-butyl}-5-methoxy-cyclohexanecarboxylic acid tert-butylamide], the values for the IC50 in experiment [1] (Enzyme IC50 (nM)) and in experiment [2] (setting [3]) were 0.6 nM and 173 nM, respectively.

In the case of `COC1CCC(C[C@@H](O)[C@H](Cc2ccccc2)NC(=O)[C@@H](CSc2ccc3ccccc3c2)NS(C)(=O)=O)C(C(=O)NC(C)(C)C)C1` (stereo partly drawn) [Example 1, 2-{2-hydroxy-3-[2-methanesulfonylamino-3-(naphthalen-2-ylsulfanyl)-propionylamino]-4-phenyl-butyl}-5-methoxy-cyclohexanecarboxylic acid tert-butylamide], the results for the IC50 in experiment [1] (Enzyme IC50 (nM)) and in experiment [2] (setting [3]) were 0.31 nM and 29 nM, respectively.

`CC1CC(C[C@@H](O)[C@H](Cc2ccccc2)NC(=O)[C@@H](C[S+]([O-])c2ccc3ccccc3c2)NS(C)(=O)=O)C(C(=O)NC(C)(C)C)C1` (stereo partly drawn) [Example 15, 2-{2-Hydroxy-3-[2-methanesulfonylamino-3-(naphthalene-2-sulfinyl)-propionylamino]-4-phenyl-butyl}-4-methyl-cyclopentanecarboxylic acid tert-butylamide]: the IC50 turned out to be 1.5 nM in experiment [1] (Enzyme IC50 (nM)) and 27 nM in experiment [2] (setting [3]).

Turning to `CC1CC(C[C@@H](O)[C@H](Cc2ccccc2)NC(=O)[C@@H](CSc2ccc3ccccc3c2)NS(C)(=O)=O)C(C(=O)NC(C)(C)C)C1` (stereo partly drawn) [Example 2, 2-{2-Hydroxy-3-[2-methanesulfonylamino-3-(naphthalen-2-ylsulfanyl)-propionylamino]-4-phenyl-butyl}-4-methyl-cyclopentanecarboxylic acid tert-butylamide], the IC50 worked out at 1.5 nM in experiment [1] (Enzyme IC50 (nM)) and 230 nM in experiment [2] (setting [3]).

Consider `COC1CCC(C[C@@H](O)[C@H](Cc2ccccc2)NC(=O)[C@@H](C[S+]([O-])c2ccc3ccccc3c2)NS(C)(=O)=O)C(C(=O)NC(C)(C)C)C1` (stereo partly drawn) [Example 14, 2-{2-Hydroxy-3-[2-methanesulfonylamino-3-(naphthalene-2-sulfinyl)-propionylamino]-4-phenyl-butyl}-5-methoxy-cyclohexanecarboxylic Acid tert-Butylamide], for which the IC50 was determined as 0.2 nM in experiment [1] (Enzyme IC50 (nM)) and 20.9 nM in experiment [2] (setting [3]).

As to `CO[C@H]1CC[C@@H](C(=O)NC(C)(C)C)C(C[C@@H](O)[C@H](Cc2ccccc2)NC(=O)[C@@H](CS(=O)(=O)c2ccc3ccccc3c2)NS(C)(=O)=O)C1` (stereo partly drawn) [Example 27, N-tert-Butyl-2-[2-hydroxy-3-[[N2-(methanesulfonyl)-S-(2-naphthyl)-D-cysteinyl]amino]-4-phenylbutyl]-4-methoxy-1-cyclohexanecarboxamide S,S-dioxide], the IC50 in experiment [1] (Enzyme IC50 (nM)) worked out at 0.2 nM; in experiment [2] (setting [3]) it was 8.3 nM.

For the compound `CO[C@H]1CC[C@@H](C(=O)NC(C)(C)C)C(C[C@@H](O)[C@H](Cc2ccccc2)NC(=O)[C@@H](CSc2ccc3ccccc3c2)NS(C)(=O)=O)C1` (stereo partly drawn) [Example 7, N-tert-Butyl-[2-hydroxy-3-[[N2-(methanesulfonyl)-S-(2-naphthyl)-D-cysteinyl]amino]-4-phenylbutyl]-4-methoxy-1-cyclohexanecarboxamide], the IC50 turned out to be 0.42 nM in experiment [1] (Enzyme IC50 (nM)) and 35.8 nM in experiment [2] (setting [3]).
